From patent US9957247B2, “SecA inhibitors and methods of making and using thereof” (Georgia State University Research Foundation, Inc., priority 2012, dated 2018)
In brackets after ≈: the same amount, converted by molar mass. Where two headings read alike, the source gives them in different places.

Tests used:
[1] = system: S. aureus Mu50; assay: Bacteriostatic effect, S. aureus Mu50; conditions: for MIC: Staphylococcus aureus; for Bacteriostatic MIC95, S. aureus Mu50: Table 2
[2] = system: B. anthracis Sterne; assay: microbe, parasite or virus in culture; type: cell-based; conditions: for MIC: Bacillus anthracis, read-out: Bacteriostatic MIC95, B. anthracis Sterne
[3] = biological target: T1, BsSecA (Bacillus subtilis, UniProt P28366); assay: cell-based; design: species or system B. subtilis
[4] = biological target: T2, EcSecA (Escherichia coli, UniProt P10408); assay: cell-based
Target sequence in this assay (P10408 whole entry): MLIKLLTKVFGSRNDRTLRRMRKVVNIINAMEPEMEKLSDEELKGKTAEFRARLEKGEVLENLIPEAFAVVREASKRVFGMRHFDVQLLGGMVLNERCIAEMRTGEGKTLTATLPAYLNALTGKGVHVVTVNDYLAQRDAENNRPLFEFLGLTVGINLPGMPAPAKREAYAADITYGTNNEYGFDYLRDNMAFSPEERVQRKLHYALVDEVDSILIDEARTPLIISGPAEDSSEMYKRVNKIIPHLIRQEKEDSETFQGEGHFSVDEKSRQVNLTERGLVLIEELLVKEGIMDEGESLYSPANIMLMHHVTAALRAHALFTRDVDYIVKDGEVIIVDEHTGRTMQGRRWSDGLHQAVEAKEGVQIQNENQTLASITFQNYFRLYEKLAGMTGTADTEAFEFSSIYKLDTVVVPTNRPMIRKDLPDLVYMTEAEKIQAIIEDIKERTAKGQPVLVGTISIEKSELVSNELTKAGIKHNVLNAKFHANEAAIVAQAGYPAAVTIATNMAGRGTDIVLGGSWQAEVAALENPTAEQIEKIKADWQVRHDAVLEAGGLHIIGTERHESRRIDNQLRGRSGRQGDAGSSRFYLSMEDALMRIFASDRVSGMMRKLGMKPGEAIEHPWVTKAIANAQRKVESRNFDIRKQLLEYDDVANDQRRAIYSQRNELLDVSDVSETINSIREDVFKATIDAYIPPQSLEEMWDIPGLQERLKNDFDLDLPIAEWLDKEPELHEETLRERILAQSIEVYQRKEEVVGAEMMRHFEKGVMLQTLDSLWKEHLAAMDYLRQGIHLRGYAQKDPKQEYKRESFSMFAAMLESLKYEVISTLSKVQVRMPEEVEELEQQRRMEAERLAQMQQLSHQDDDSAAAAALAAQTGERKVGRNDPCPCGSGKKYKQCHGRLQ

[5] = system: B. subtilis 168; assay: Bacteriostatic effect, liquid microdilution, B. subtilis 168; type: cell-based; conditions: Bacillus subtilis, Example 2
[6] = biological target: EcSecA N68 (Escherichia coli, UniProt P10408); assay: biochemical; type: biochemical, E. coli
[7] = system: S. aureus deletion strains (NorA−, MepA−) and strains (NorA++, MepA++) with over-expressed efflux pumps; assay: Antimicrobial effect with deletion or over expression of efflux pumps in S. aureus; conditions: wild type, NorA−/MepA− and NorA++/MepA++ strains
[8] = biological target: BsSecA2; conditions: read-out: IC50, Intrinsic ATPase, BsSecA2; Table 1
[9] = biological target: T3, SaSecA2 (Staphylococcus aureus, UniProt Q2FUW6); assay: ATPase activity assay (malachite green), SaSecA2; conditions: IC50, Intrinsic ATPase, SaSecA2, Table 1
T3 sequence (Q2FUW6 1-796): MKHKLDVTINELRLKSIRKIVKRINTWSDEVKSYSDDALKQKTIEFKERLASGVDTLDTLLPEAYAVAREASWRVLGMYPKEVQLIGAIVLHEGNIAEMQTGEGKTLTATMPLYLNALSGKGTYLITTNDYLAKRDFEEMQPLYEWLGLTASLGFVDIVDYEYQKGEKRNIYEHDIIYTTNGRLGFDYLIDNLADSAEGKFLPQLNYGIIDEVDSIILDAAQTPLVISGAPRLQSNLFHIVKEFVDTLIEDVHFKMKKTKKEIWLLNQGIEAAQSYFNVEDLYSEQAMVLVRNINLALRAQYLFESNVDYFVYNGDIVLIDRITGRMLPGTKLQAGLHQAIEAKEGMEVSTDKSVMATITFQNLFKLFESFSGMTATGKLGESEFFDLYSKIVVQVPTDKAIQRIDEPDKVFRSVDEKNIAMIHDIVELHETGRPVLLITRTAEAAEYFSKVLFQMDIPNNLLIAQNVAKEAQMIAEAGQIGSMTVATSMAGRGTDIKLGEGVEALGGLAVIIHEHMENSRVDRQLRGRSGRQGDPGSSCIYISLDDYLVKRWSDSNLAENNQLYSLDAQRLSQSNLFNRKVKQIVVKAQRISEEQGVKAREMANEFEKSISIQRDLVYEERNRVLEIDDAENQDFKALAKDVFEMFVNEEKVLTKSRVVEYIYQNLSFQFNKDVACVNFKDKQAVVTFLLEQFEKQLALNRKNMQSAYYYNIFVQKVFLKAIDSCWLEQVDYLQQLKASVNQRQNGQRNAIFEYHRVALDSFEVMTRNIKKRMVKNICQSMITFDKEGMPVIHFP

[10] = biological target: T1, BsSecA; assay: biochemical; type: biochemical, B. subtilis
[11] = biological target: SpSecA (Streptococcus pyogenes, UniProt Q99Y96); type: cell-based; conditions: read-out: IC50, Ion Channel activity, SpSecA
[12] = biological target: MsSecA (Mycolicibacterium smegmatis, UniProt P71533); assay: SecA-liposomes ion-channel activity in oocytes, MsSecA; type: cell-based; conditions: Table 1
[13] = biological target: BaSecA1 (Bacillus anthracis, UniProt Q81X26); assay: cell-based; conditions: IC50, Ion Channel activity, BGaSecA 1
[14] = biological target: T2, EcSecA; assay: biochemical; design: species or system E. coli; conditions: IC50, Intrinsic ATPase, Table 1, full-length EcSecA
Target sequence in this assay (P10408 whole entry): as the sequence (P10408 whole entry) above

[15] = biological target: T2, EcSecA; assay: biochemical; conditions: IC50, Translocation ATPase, Table 1
Target sequence in this assay (P0AG99 whole entry): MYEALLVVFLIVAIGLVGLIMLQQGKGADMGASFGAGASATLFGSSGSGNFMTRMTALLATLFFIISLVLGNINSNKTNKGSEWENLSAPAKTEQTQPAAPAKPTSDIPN
Target sequence in this assay (P10408 whole entry): as the sequence (P10408 whole entry) above
Target sequence in this assay (P0AGA2 whole entry, further chain): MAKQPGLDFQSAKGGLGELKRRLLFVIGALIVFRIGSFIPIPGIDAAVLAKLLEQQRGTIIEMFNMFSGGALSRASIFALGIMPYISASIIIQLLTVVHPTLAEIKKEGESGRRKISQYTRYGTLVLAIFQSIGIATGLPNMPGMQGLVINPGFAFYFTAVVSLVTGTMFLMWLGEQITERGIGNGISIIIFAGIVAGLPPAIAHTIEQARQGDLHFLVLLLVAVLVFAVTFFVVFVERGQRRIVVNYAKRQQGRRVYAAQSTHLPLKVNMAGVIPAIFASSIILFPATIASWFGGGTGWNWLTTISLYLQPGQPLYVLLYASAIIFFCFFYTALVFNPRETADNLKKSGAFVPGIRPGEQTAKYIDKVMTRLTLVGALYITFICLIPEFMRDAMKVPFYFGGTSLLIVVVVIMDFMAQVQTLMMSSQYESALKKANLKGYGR
Target sequence in this assay (P0AG96 whole entry, further chain): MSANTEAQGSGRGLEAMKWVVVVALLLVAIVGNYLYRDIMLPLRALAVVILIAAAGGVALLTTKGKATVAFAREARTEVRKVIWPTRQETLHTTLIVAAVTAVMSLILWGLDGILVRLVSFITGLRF

[16] = biological target: T2, EcSecA; assay: biochemical; conditions: IC50, Protein Translocation, Table 1
Target sequence in this assay (P0AG99 whole entry): as the sequence (P0AG99 whole entry) above
Target sequence in this assay (P10408 whole entry): as the sequence (P10408 whole entry) above
Target sequence in this assay (P0AGA2 whole entry, further chain): as the sequence (P0AGA2 whole entry, further chain) above
Target sequence in this assay (P0AG96 whole entry, further chain): as the sequence (P0AG96 whole entry, further chain) above

[17] = system: S. pyogenes, MGAS5005; assay: MIC95, S. pyogenes MGAS5005; type: cell-based; conditions: Streptococcus pyogenes, MGAS5005; read-out: MIC95, S. pyogenes MGAS5005
[18] = biological target: T4, SaSecA1 (Staphylococcus aureus, UniProt O06446); assay: cell-based
T4 sequence (O06446 1-843): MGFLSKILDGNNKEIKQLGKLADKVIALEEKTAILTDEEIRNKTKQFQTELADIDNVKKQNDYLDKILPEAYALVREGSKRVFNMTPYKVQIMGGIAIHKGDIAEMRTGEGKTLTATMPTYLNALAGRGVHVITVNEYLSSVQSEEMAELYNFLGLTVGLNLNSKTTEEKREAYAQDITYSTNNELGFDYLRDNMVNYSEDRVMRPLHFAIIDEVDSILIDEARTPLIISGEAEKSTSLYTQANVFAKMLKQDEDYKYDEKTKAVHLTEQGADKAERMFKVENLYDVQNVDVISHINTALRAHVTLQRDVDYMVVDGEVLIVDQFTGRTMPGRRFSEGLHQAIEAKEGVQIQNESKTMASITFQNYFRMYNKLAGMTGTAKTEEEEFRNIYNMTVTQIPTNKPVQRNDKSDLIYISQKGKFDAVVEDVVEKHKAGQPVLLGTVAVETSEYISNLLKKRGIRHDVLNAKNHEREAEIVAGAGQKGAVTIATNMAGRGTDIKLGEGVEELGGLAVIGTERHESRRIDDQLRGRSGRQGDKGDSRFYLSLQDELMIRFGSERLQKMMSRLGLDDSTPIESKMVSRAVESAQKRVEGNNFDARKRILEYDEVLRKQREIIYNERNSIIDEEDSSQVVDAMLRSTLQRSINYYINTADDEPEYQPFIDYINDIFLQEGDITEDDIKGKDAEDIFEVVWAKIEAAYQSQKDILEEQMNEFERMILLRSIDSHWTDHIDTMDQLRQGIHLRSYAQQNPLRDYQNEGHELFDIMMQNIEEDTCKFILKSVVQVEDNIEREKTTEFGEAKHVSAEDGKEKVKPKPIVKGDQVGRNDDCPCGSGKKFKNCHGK

[19] = biological target: MtbSecA (Mycobacterium tuberculosis, UniProt P9WGP5); assay: cell-based
[20] = MU50, read-out: Bacteriostatic MIC95, S. aureus Mu50, Table 2
[21] = MU50, read-out: Bacteriostatic effect MIC, S. aureus Mu50, Table 10 and Example 4
[22] = Ion channel, IC50, BsSecA, Table 5
[23] = Ion channel, IC50, EcSecA, Table 5
[24] = MU50, read-out: MIC95 against drug resistant S. aureus Mu50

T1 sequence (P28366 whole entry): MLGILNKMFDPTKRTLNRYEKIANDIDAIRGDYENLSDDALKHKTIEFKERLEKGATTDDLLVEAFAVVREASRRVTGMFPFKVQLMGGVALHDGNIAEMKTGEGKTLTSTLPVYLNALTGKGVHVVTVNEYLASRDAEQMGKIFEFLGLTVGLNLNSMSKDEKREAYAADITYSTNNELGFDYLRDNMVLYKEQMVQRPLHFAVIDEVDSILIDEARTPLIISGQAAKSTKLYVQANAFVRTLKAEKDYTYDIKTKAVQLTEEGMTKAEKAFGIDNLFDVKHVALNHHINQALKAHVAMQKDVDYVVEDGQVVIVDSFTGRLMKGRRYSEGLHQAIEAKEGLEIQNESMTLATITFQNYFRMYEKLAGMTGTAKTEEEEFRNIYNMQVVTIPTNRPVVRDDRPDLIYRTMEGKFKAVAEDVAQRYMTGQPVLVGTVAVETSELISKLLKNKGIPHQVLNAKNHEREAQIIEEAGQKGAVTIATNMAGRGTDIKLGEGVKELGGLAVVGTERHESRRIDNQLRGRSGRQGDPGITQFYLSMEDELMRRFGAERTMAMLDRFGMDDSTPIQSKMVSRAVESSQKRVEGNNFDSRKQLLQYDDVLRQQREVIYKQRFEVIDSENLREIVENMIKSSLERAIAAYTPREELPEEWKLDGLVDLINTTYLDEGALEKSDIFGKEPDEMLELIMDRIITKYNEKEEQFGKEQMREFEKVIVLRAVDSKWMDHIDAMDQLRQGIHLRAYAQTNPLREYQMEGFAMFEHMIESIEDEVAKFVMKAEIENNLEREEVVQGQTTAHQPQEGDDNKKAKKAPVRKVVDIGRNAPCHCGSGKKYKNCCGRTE
EcSecA N68, sequence (P10408 1-610): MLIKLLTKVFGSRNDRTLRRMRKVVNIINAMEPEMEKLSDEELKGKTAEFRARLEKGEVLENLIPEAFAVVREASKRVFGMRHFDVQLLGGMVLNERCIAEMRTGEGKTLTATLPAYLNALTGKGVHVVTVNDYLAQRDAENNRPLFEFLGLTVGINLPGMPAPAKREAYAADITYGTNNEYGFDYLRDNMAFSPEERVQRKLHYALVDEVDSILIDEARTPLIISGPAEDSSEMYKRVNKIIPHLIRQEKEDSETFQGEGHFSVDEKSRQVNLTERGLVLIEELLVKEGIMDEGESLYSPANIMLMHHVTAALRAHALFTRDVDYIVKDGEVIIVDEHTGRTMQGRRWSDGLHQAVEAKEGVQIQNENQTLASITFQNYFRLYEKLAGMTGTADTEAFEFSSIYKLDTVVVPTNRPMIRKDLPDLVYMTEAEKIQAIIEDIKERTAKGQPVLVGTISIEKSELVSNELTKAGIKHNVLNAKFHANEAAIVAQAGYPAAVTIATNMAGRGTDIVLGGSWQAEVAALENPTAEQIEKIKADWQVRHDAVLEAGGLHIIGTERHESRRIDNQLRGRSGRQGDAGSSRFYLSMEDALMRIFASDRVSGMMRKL
MtbSecA, sequence (P9WGP5 whole entry): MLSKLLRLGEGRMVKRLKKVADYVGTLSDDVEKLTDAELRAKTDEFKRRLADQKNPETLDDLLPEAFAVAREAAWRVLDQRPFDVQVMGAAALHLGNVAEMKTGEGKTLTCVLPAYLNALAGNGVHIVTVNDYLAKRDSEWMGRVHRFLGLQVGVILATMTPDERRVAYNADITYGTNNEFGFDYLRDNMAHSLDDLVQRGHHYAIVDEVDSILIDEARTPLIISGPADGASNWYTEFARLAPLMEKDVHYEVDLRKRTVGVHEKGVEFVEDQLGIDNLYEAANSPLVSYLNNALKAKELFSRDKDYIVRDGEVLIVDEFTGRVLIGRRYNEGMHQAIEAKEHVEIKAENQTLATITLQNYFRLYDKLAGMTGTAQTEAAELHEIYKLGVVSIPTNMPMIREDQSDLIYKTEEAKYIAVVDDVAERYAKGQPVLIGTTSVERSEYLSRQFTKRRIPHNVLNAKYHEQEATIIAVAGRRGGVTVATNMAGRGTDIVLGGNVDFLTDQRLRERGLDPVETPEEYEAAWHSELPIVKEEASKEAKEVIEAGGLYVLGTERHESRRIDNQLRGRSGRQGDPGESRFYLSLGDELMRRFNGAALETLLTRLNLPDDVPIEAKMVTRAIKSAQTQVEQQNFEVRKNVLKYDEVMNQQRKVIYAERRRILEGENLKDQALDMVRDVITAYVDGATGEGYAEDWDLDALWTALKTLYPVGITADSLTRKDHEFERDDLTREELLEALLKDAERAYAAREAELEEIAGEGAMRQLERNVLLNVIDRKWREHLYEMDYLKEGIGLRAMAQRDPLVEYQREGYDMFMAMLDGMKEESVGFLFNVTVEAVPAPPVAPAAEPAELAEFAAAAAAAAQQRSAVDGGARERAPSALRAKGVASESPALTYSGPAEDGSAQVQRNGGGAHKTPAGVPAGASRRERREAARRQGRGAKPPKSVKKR

CC1(C)S[C@@H]2[C@H](NC(=O)[C@H](N)c3ccccc3)C(=O)N2[C@H]1C(=O)O [Ampicillin]
MIC [1, 20]: 7.8 µg/mL | MIC [1, 21]: 1000 µg/mL | MIC [2]: > 20 µg/mL

O=C(N[C@H](CO)[C@H](O)c1ccc([N+](=O)[O-])cc1)C(Cl)Cl [Chloramphenic]
Bacteriostatic MIC95, S. aureus Mu50 [1]: >40 µg/mL | Bacteriostatic MIC95, B. anthracis Sterne [2]: 10 µg/mL

Oc1ccc2c(c1)Oc1cc(O)ccc1C2C1CCCC1 [Compound 22a, 9-Cyclopentyl-9H-xanthene-3,6-diol]
IC50 [3, 22]: 3000 nM | IC50 [4, 23]: 3400 nM | MIC [5]: 25 µM (≈ 7.06 µg/mL)

CC(C)C1c2ccc(O)cc2Oc2cc(O)ccc21 [Compound 22b, 9-Isopropyl-9H-xanthene-3,6-diol]
IC50 [3, 22]: 4900 nM | IC50 [4]: 4300 nM | MIC [5]: 75 µM (≈ 19.2 µg/mL)

CCCCCCC1c2ccc(O)cc2Oc2cc(O)ccc21 [Compound 22c, 9-Hexyl-9H-xanthene-3,6-diol]
IC50 [3, 22]: 2500 nM | IC50 [4, 23]: 2300 nM | MIC [5]: 13 µM (≈ 3.88 µg/mL)

Oc1c(Br)cc2c(c1Br)Oc1c(cc(Br)c(O)c1Br)C2C1CCCC1 [Compound 23a, 2,4,5,7-Tetrabromo-9-cyclopentyl-9H-xanthene-3,6-diol]
IC50 [3, 22]: 2400 nM | IC50 [4]: 2300 nM | MIC [5]: 22 µM (≈ 13.2 µg/mL)

Oc1c(I)cc2c(c1I)Oc1c(cc(I)c(O)c1I)C2C1CCCC1 [Compound 23b, 9-Cyclopentyl-2,4,5,7-tetraiodo-9H-xanthene-3,6-diol]
IC50 [3, 22]: 3800 nM | IC50 [4]: 2500 nM | MIC [5]: 6 µM (≈ 4.72 µg/mL)

Oc1cc2c(cc1I)C(C1CCCC1)c1cc(I)c(O)c(I)c1O2 (stereo not drawn) [Compound 23c]
IC50 [3, 22]: 2800 nM | IC50 [4]: 2200 nM | MIC [5]: 6 µM (≈ 3.96 µg/mL)

CC(C)C1c2cc(I)c(O)c(I)c2Oc2c1cc(I)c(O)c2I [Compound 23d, 2,4,5,7-Tetraiodo-9-isopropyl-9H-xanthene-3,6-diol]
IC50 [3, 22]: 2500 nM | IC50 [4]: 2800 nM | MIC [5]: 6 µM (≈ 4.56 µg/mL)

CN(C)c1ccc2c(c1)Oc1cc(N(C)C)ccc1C2C1CCCC1 [Compound 30, 9-Cyclopentyl-N3,N3,N6,N6-tetramethyl-9H-xanthene-3,6-diamine]
Inhibition of EcSecA N68 ATPase, initial screening ([6]; 100 μM, FIG. 1): weak or no activity

O=C(O)c1ccccc1-c1c2ccc(=O)c(I)c-2oc2c(I)c(O)ccc12 [DI, Diiodofluorescein, reference compound]
IC50 ([6]; read-out: IC50, EcN68 SecA ATPase (unregulated ATPase)): 30000 nM

CC[C@H]1OC(=O)[C@H](C)[C@@H](O[C@H]2C[C@@](C)(OC)[C@@H](O)[C@H](C)O2)[C@H](C)[C@@H](O[C@@H]2O[C@H](C)C[C@H](N(C)C)[C@H]2O)[C@](C)(O)C[C@@H](C)C(=O)[C@H](C)[C@@H](O)[C@]1(C)O [Erythromycin]
MIC [1, 20]: > 500 µg/mL | MIC [1, 21]: > 1250 µg/mL | MIC [1, 24]: > 100 µM | MIC [2]: 0.3 µg/mL (≈ 0.409 µM)

NC[C@H]1O[C@H](O[C@H]2[C@H](O)[C@@H](O[C@H]3O[C@H](CO)[C@@H](O)[C@H](N)[C@H]3O)[C@H](N)C[C@@H]2N)[C@H](O)[C@@H](O)[C@@H]1O [Kanamycin]
MIC [1, 21]: 1000 µg/mL | MIC [1, 24]: > 100 µM

CCn1cc(C(=O)O)c(=O)c2cc(F)c(N3CCNCC3)cc21 [Norfloxacin]
MIC [1, 21]: 250 µg/mL

CO[C@H]1/C=C/O[C@@]2(C)Oc3c(C)c(O)c4c(O)c(c(/C=N/N5CCN(C)CC5)c(O)c4c3C2=O)NC(=O)/C(C)=C\C=C\[C@H](C)[C@H](O)[C@@H](C)[C@@H](O)[C@@H](C)[C@H](OC(C)=O)[C@@H]1C [Rifampicin]
MIC [1, 21]: > 1000 µg/mL

CSc1nc(Sc2nnc(-c3cc(C(F)(F)F)cc(C(F)(F)F)c3)[nH]2)cc(Sc2nnc(-c3cc(C(F)(F)F)cc(C(F)(F)F)c3)[nH]2)n1 [SCA-21]
IC50 [6]: 18000 nM | Bactericidal (killing) effect with over expression of efflux pumps [7]: not attenuated | MIC (bacteriostatic) with over expression of efflux pumps [7]: did not increase | IC50 ([3]; IC50, Ion Channel activity, BsSecA, Table 1): 2600 nM | IC50 [8]: 45000 nM | IC50 [9]: 43000 nM | IC50 [10]: > 100000 nM | IC50 [11]: 1000 nM | IC50 [4]: 2400 nM | MIC [1, 20]: 1.5 µg/mL | MIC [1, 24]: 1.5 µM | IC50 [12]: 2000 nM | IC50 [13]: 1500 nM | MIC [2]: 3 µg/mL (≈ 4.01 µM) | IC50 [14]: 32000 nM | IC50 [15]: 20000 nM | IC50 [16]: 21000 nM | MIC [17]: 0.39 µM (≈ 0.292 µg/mL) | IC50 [18]: 1600 nM | IC50 [19]: 2000 nM

CN(C)[C@@H]1C(O)=C(C(N)=O)C(=O)[C@@]2(O)C(O)=C3C(=O)c4c(O)cccc4[C@@](C)(O)[C@H]3C[C@@H]12 [Tetracycline]
MIC [1, 20]: 200 µg/mL | MIC [1, 21]: 62.5 µg/mL | MIC [1, 24]: > 100 µM | MIC [2]: 0.1 µg/mL (≈ 0.225 µM)

CN[C@H](CC(C)C)C(=O)N[C@H]1C(=O)N[C@@H](CC(N)=O)C(=O)N[C@H]2C(=O)N[C@H]3C(=O)N[C@H](C(=O)N[C@H](C(=O)O)c4cc(O)cc(O)c4-c4cc3ccc4O)[C@H](O)c3ccc(c(Cl)c3)Oc3cc2cc(c3O[C@@H]2O[C@H](CO)[C@@H](O)[C@H](O)[C@H]2O[C@H]2C[C@](C)(N)[C@H](O)[C@H](C)O2)Oc2ccc(cc2Cl)[C@H]1O [Vancomycin]
MIC ([1]; MU50, read-out: Bacteriostatic MIC95, S. aureus Mu50): 5 µg/mL | MIC ([1]; MU50, read-out: Bacteriostatic effect MIC, S. aureus Mu50): 7.8 µg/mL | MIC [1, 24]: 5 µM | MIC [2]: 2.5 µg/mL (≈ 1.73 µM)

Gentamycin
Bacteriostatic MIC95, S. aureus Mu50 [1]: >500 µg/mL | Bacteriostatic MIC95, B. anthracis Sterne ([2]; Table 2): 5 µg/mL

Polymyxin B
Bacteriostatic MIC95, S. aureus Mu50 [1]: 15 µg/mL | Bacteriostatic effect MIC, S. aureus Mu50 ([1]; Table 10 and text of Example 4): 31.3 µg/mL | Bacteriostatic MIC95, B. anthracis Sterne ([2]; Table 2): 10 µg/mL
